Assay results as given in patent publication US6858638B2, “Substituted indazoles, compositions containing them, method of production and use” (Aventis Pharma S.A., priority 2002, dated 2005).

Molecular target: CDK2/cyclinE kinase (Homo sapiens, UniProt P24941)
Test: CDK2/cyclinE kinase phosphorylation of Rb-biotinylated peptide, scintillation plates
Type: biochemical
Conditions: read-out: CDK2 % inhib at 10 μM
Protocol: The inhibition of the CDK2/cyclinE kinase is evaluated by measuring the phosphorylation of the peptide substrate Rb-biotinylated, detected by […], in 96-well scintillation plates (Flashplates) coated with streptavidin.
Each point is assayed in duplicate.
Sequence of the Rb-biotinylated peptide: Biotin-[…]-OH
Protocol: • 1. Preparation of the substrate: fresh solution at 1 mg/ml in PBS. • 2. Introduce 4 μg per well into the scintillation plate. • 3. Incubate for 2 hours at ambient temperature. • 4. Prepare series of dilutions at 1 mM, 300 μM, 100 μM, 30 μM and 10 μM in DMSO from a stock solution of inhibitor at 10 mM in DMSO. • 5. Wash the scintillation plate with 3 times 300 μl of PBS to remove the unbound peptide substrate. • 6. Add the CDK2/cyclinE kinase: 200 ng per well, in 90 μl of kinase buffer (with the exception of the “without enzyme” control wells). • 7. Add the test inhibitor to each of the wells, at a final concentration for 100 μl of 10 μM, 3 μM, 1 μM, 0.3 μM and 0.1 μM. • 8. Agitate the scintillation plate gently for 1 minute. • 9. Incubate for 30 minutes on ice. • 10. Initiate the reaction with 10 μl of kinase buffer having a final concentration per well of 1 μM of cold ATP and of 1 μCi of ATP-^33P. • 11. […] Indirect measurement of the radioactivity corresponding to the incorporation of ATP-^33P, originating from the kinase, into the phosphorylation site of Rb. […]

Row | Compound | inhibition at 10 µM [%]
1 | Nc1n[nH]c2ccc(NS(=O)(=O)c3cccc(F)c3)cc12 [Example 26, N-(3-Amino-1H-indazol-5-yl)-3-fluorobenzenesulfonamide] | 39
2 | CS(=O)(=O)c1ccccc1S(=O)(=O)Nc1ccc2[nH]nc(-c3ccc(Cl)cc3)c2c1 [Example 30, N-[3-(4-Chlorophenyl)-1H-indazol-5-yl]-2-methylsulfonylbenzenesulfonamide] | 73
